Experiments:
[1] = molecular target: T1, hα7-wt nAChR-expressing cells (Homo sapiens, UniProt P36544); test: Ca2+ flux imaging (FDSS) (Protocol B), PAM activity with choline 100 μM; format: cell-based; details: according to Ex. D.1b; read-out: % Efficacy
T1 construct: expressed in transfected cells; host or cells: hα7-wt nAChR-expressing cells
Procedure: Ca^2+ Flux Imaging (FDSS) (Protocol B)
• a) Assay buffer • Hanks buffered saline solution (HBSS, Invitrogen, Belgium), supplemented with 10 mM HEPES (Invitrogen, Belgium), CaCl2 to a final concentration of 5 mM, 0.1% Bovine serum albumin (Sigma-Aldrich NV, Belgium). • b) Calcium-sensitive dye—Fluo-4AM • Fluo-4AM (Molecular Probes, USA) was dissolved in DMSO containing 10% Pluronic acid (Molecular Probes, USA) to give a stock solution which was diluted in assay buffer supplemented with 5 mM probenicid (Sigma, Al-drich NV, Belgium) to give a final concentration of 2 μM. • c) 384-well plates • Black 384 well plate black/clear plates, PDL pre-coated (Corning, Incorporated, USA) • d) Calcium flux measurement • A Functional drug screening system (FDSS, Hamamatsu) was used to measure intracellular free-calcium flux signals. Method
Monolayers of hα7-wt nAChR-expressing cells were grown in multi-well plates, in particular black-sided, transparent bottomed 384 well plates coated with poly-D-lysine for 24 hours prior to loading with a fluorescent calcium indicator, in a particular embodiment loading with fluo-4AM for up to 120 minutes.
PAM activity was detected in real time by applying the compounds to be tested to the loaded cells along with a α7 nicotinic receptor agonist during constant monitoring of cellular fluorescence in a FDSS. Compounds giving peak fluorescent responses greater than the response due to agonist alone, were considered to be α7 nAChR PAM's. In a particular embodiment, the α7 nicotinic receptor agonist was choline, a more particular embodiment choline applied at a sub-maximal concentration of 100 μM. In a further setting of the present invention the compounds to be tested were applied prior to the α7 nicotinic receptor agonist, in a particular embodiment up to 10 minutes prior to the agonist.
A control response to choline was calculated on each plate from the difference in peak in fluorescence in wells receiving either choline or assay buffer alone. Compounds of the present invention were tested at a concentration range from 0.01 μM to 30 μM. Compounds were considered to have an interesting activity when they potentiated the choline signal at least with 500% when tested at a concentration of 30 μM (the efficacy of 100 μM choline was defined as 100% in the absence of a PAM). The compounds also have a potentiating effect on the response to choline when measured by whole-cell patch clamp electrophysiology in GH4Cl cells stably over-expressing the human wild-type α7 receptor.

[2] = molecular target: T2, hα7-wt nAChR-expressing GH4Cl cells (Homo sapiens, UniProt P36544); test: Patch-clamp current recording (whole-cell), potentiation of choline 1 mM response, PAM type; format: cell-based; design: key to Pam type: Type 0 compounds minimally enhance the effect size of the current elicited by 1 mM choline.; Type 1 compounds enhance the effect size of the current elicited by 1 mM choline but minimally alter the kinetics of the receptor.; Type 2 compounds enhance the effect size of the current elicited by 1 mM choline while reducing the rate and/or the extent of desensitization.; Type 3 compounds enhance the effect size of the current elicited by 1 mM choline. When tested at higher concentrations up to 10 μM they completely inhibit desensitization, in particular a 1 mM choline application of 250 milliseconds.; Type 4 compounds allow for an initial desensitization of the receptor followed by a re-opening of the receptor during agonist application; details: for EC50: according to Ex. D.2, "<5" = no top plateau reached at maximal concentration, read-out: Potency (pEC50) (converted); for Pam type: patch-clamp current recording, 1 mM choline
T2 construct: expressed in transfected cells
T2 sequence (P36544 23-502): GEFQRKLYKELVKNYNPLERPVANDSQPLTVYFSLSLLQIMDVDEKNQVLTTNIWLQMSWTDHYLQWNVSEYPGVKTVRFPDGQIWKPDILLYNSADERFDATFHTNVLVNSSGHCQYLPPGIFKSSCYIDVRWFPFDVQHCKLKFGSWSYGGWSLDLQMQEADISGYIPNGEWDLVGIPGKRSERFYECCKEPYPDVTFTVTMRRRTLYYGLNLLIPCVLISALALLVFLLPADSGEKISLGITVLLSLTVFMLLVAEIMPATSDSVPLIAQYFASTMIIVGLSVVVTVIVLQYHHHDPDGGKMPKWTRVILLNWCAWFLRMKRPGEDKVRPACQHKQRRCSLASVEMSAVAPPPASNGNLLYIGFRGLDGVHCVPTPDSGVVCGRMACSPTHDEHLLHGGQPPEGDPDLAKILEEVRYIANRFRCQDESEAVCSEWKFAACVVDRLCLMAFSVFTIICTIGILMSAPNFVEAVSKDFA
Procedure, shortened: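 Whole-cell voltage clamp at −70 mV of GH4Cl cells expressing human α7 nAChR, with PAM and 1 mM choline co-applied by rapid-switching (<100 ms) microfluidics. External solution HEPES-buffered, 1 mM Ca, pH 7.3; CsCl-based internal. Compounds classified into PAM types by effect on current amplitude and desensitization kinetics.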

T1 sequence (P36544 23-502): as above

Row | SMILES | melting point | Emax [1] | EC50 [2] | Pam type [2]
1 | C/C=C/c1nc(Nc2ccc(F)c(C(F)(F)F)c2)nn1-c1ccnc(C)c1 [E11, N-[4-Fluoro-3-(trifluoromethyl)phenyl]-1-(2-methyl-4-pyridinyl)-5-[(1E)-1-propenyl]-1H-1,2,4-triazol-3-amine] | 226.3 °C | 341% | 138 nM | –
2 | C[C@H](O)Cc1nc(Nc2ccc(F)c(F)c2)nn1-c1ccc(F)cc1 [E19] | 178 °C | 445% | 3020 nM | –
3 | CNC(=O)CCc1nc(Nc2ccc(F)c(F)c2)nn1-c1ccccc1Cl [E38] | – | 253% | 3090 nM | –
4 | CNC(=O)CCc1nc(Nc2ccc(F)c(F)c2)nn1-c1cccc(Cl)c1 [E39] | – | 674% | 2570 nM | –
5 | CNC(=O)CCc1nc(Nc2ccc(F)c(F)c2)nn1-c1ccc(Cl)cc1 [E40] | 177.3 °C | 495% | 1910 nM | –
6 | CNC(=O)CCc1nc(Nc2ccc(F)c(F)c2)nn1-c1ccc(OC(F)(F)F)cc1 [E47] | – | 698% | 1510 nM | –
7 | CC[C@@H](O)Cc1nc(Nc2cc(OC)cc(C(F)(F)F)c2)nn1-c1cc(C)nc(C)c1 [E128] | 138.8 °C | 994% | 126 nM | 4
8 | Cc1cc(-n2nc(Nc3ccc(F)c(F)c3)nc2C[C@H](C)O)cc(C)n1 [E141] | 225.7 °C | 961% | 1380 nM | 2
9 | Cc1cc(-n2nc(Nc3cccc(Cl)c3F)nc2CC(=O)NC2CC2)c(C)cn1 [E157] | 192.6 °C | 492% | 3800 nM | 2
10 | Cc1cc(-n2nc(Nc3cccc(Cl)c3F)nc2CC(=O)NCC2CC2)c(C)cn1 [E158] | – | 328% | 1380 nM | 1
11 | Cc1cc(-n2nc(Nc3cccc(Cl)c3F)nc2CC(=O)NC2CCC2)c(C)cn1 [E159] | – | 592% | 1740 nM | 1
12 | Cc1cc(-n2nc(Nc3ccc(F)c(F)c3)nc2CC(=O)NC2CCC2)c(C)cn1 [E162] | 244.1 °C | 623% | 2880 nM | 1
13 | Cc1cc(-n2nc(Nc3ccc(F)c(F)c3)nc2CC(=O)NCC2CC2)c(C)cn1 [E166] | 211.2 °C | 589% | 2340 nM | 1
14 | COc1ccc(-n2nc(Nc3cccc(OC(F)(F)F)c3)nc2CCC(=O)N(C)C)cc1 [E183] | – | 718% | 26.9 nM | 1
15 | Cc1nccc(-n2nc(Nc3cccc(Cl)c3F)nc2CC(=O)NC2CCC2)c1C [E192] | 187.9 °C | 397% | 1580 nM | 1
16 | Cc1nccc(-n2nc(Nc3cccc(Cl)c3F)nc2CC(=O)NCC2CC2)c1C [E193] | – | 327% | ~3020 nM | –
17 | Cc1cc(-n2nc(Nc3ccc(F)c(F)c3)nc2C[C@@H](C)O)ccn1 [E198] | 210.3 °C | 808% | 1860 nM | 2
18 | Cc1cc(-n2nc(Nc3ccc(F)c(F)c3F)nc2CC(=O)NC(C)C)cc(C)n1 [E213] | 252.1 °C | 909% | 468 nM | 2

Now from value to compound, other results behind:

Row | melting point | Emax [1] | SMILES | EC50 [2] | Pam type [2]
19 | 213.7 °C | 730% | Cc1cc(-n2nc(Nc3ccc(F)c(F)c3F)nc2CC(=O)NCC2CC2)cc(C)n1 [E214] | 132 nM | 2
20 | 296.1 °C | 658% | CCNC(=O)Cc1nc(Nc2cc(F)c(F)c(F)c2)nn1-c1cc(C)nc(C)c1 [E215] | 214 nM | 2
21 | 246.2 °C | 576% | CNC(=O)Cc1nc(Nc2cc(Cl)cc(OC)c2)nn1-c1cc(C)nc(C)c1 [E216] | 603 nM | 4
22 | 254 °C | 702% | CCNC(=O)Cc1nc(Nc2cc(Cl)cc(OC)c2)nn1-c1cc(C)nc(C)c1 [E219] | 269 nM | 4
23 | – | 646% | CC[C@H](O)Cc1nc(Nc2cc(OC)cc(C(F)(F)F)c2)nn1-c1ccnc(C)c1C [E220] | 2040 nM | –
24 | 264.4 °C | 620% | COc1cc(Cl)cc(Nc2nc(CC(=O)NC3CC3)n(-c3cc(C)nc(C)c3)n2)c1 [E221] | 209 nM | 4
25 | 257.8 °C | 440% | COc1cc(Cl)cc(Nc2nc(CC(=O)NC3CCC3)n(-c3cc(C)nc(C)c3)n2)c1 [E222] | 83.2 nM | 1
26 | 264.2 °C | 603% | CNC(=O)Cc1nc(Nc2ccc(F)c(C(F)(F)F)c2)nn1-c1cc(C)nc(C)c1 [E223] | 316 nM | –
27 | 256.2 °C | 600% | CCNC(=O)Cc1nc(Nc2ccc(F)c(C(F)(F)F)c2)nn1-c1cc(C)nc(C)c1 [E224] | 204 nM | 1
28 | 248.8 °C | 660% | Cc1cc(-n2nc(Nc3ccc(F)c(C(F)(F)F)c3)nc2CC(=O)NC2CCC2)cc(C)n1 [E225] | 100 nM | 0
29 | – | 711% | Cc1cc(-n2nc(Nc3ccc(F)c(C(F)(F)F)c3)nc2CC(=O)NC2CC2)cc(C)n1 [E226] | 120 nM | 1
30 | 263 °C | 654% | CNC(=O)Cc1nc(Nc2ccc(OC)c(C(F)(F)F)c2)nn1-c1cc(C)nc(C)c1 [E227] | 457 nM | 4
31 | 265.7 °C | 680% | COc1ccc(Nc2nc(CC(=O)NC3CC3)n(-c3cc(C)nc(C)c3)n2)cc1C(F)(F)F [E229] | 135 nM | 4
32 | 287.4 °C | 417% | Cc1cc(-n2nc(Nc3ccc(F)c(Cl)c3)nc2CC(=O)NC2CC2)cc(C)n1 [E230] | 141 nM | –
33 | 273.9 °C | 606% | Cc1cc(-n2nc(Nc3ccc(F)c(Cl)c3)nc2CC(=O)NC2CCC2)cc(C)n1 [E231] | 57.5 nM | –
34 | 282.1 °C | 289% | CNC(=O)Cc1nc(Nc2cc(F)cc(F)c2)nn1-c1cc(C)nc(C)c1 [E232] | 871 nM | –
35 | 200.2 °C | 459% | Cc1cc(-n2nc(Nc3ccc(F)c(F)c3)nc2CCC(=O)N(C)C)cc(C)n1 [E234, 3-[(3,4-difluorophenyl)amino]-1-(2,6-dimethyl-4-pyridinyl)-N,N-dimethyl-1H-1,2,4-triazole-5-propanamide] | 61.7 nM | –
36 | 178 °C | 419% | Cc1cc(-n2nc(Nc3ccc4c(c3)OC(F)(F)O4)nc2CCC(=O)N(C)C)cc(C)n1 [E235, 3-[(2,2-difluoro-1,3-benzodioxol-5-yl)amino]-1-(2,6-dimethyl-4-pyridinyl)-N,N-dimethyl-1H-1,2,4-triazole-5-propanamide] | 28.8 nM | –
37 | 268.7 °C | 391% | COc1ccc(Nc2nc(CC(=O)NC3CCC3)n(-c3cc(C)nc(C)c3)n2)cc1C(F)(F)F [E236] | 120 nM | –
38 | 289 °C | 522% | CCNC(=O)Cc1nc(Nc2cc(F)cc(F)c2)nn1-c1cc(C)nc(C)c1 [E237] | 407 nM | –
39 | – | 616% | Cc1cc(-n2nc(Nc3cccc(Cl)c3F)nc2CCC(=O)N(C)C)cc(C)n1 [E265] | 37.2 nM | –

— patent US8778974B2, “Trisubstituted 1,2,4 triazoles” (Janssen Pharmaceutica NV, priority 2008, dated 2014)
